pIC50: −log10 of the molar value. Like-named read-outs stand apart in the source and are kept apart here.
What was measured:
mast cells = assay: Early and delayed mast cell responses induced by FcεRI aggregation; type: cell-based
Procedure: Binding of Btk and Vav with SLP-76 is critical for regulating PLC-γ activity on the membrane, calcium mobilisation and granule exocytosis^27, 28.
(§1) • 1) Chemical products and antibodies. A chemical bank of 3000 molecules (a varied subset) was acquired from ChemBridge, Inc. (San Diego, Calif.). Stocks of solutions of small molecules were prepared at a rate of 10 mM in DMSO (dimethylsulphoxide), except for C-13 (methyl 2-{5-[(3-benzyl-4-oxo-2-thioxo-1,3-thiazolidin-5-ylidene)methyl]-2-furyl}benzoate, ChemBridge ID No. 6197026) prepared in DMF (dimethylformamide). Unless specified otherwise, all the reagents were supplied by Sigma. Dinitrophenyl (DNP) hapten was acquired from Calbiochem. […] The binding of G4G11 with Syk was assessed by adding the 9E10 monoclonal antibody conjugated with HRP detecting the amino acid sequence EQKLISEEDLN of human c-myc protein located at the C-terminal end of the scFv fragment. To generate Syk mutants, targeted mutagenesis was used on GST:Syk 6-242 protein and the binding of G4G11 with the mutants was assessed in the presence of 5 μM of C-13. • 3) Cells, culture conditions and functional tests. […] The level of β-hexosaminidase released was measured 10 min later and the TNF-α titration was performed by means of a cytotoxicity test on L929 cells as described previously^10, 3 hours after stimulation. […]

BALB/c mice = assay: Peritonitis: Syk-dependent peritoneal neutrophil recruitment; type: in vivo; details: single oral administration of 100 mg/kg, Bordetella pertussis toxin
Syk = target: T1, Syk (Rattus norvegicus, UniProt Q64725); assay: Phosphorylation and FcεRI-induced kinase activity of Syk in RBL-2H3 cells; type: cell-based
T1 construct: endogenous in cells; host or cells: RBL-2H3
T1 sequence (Q64725 whole entry): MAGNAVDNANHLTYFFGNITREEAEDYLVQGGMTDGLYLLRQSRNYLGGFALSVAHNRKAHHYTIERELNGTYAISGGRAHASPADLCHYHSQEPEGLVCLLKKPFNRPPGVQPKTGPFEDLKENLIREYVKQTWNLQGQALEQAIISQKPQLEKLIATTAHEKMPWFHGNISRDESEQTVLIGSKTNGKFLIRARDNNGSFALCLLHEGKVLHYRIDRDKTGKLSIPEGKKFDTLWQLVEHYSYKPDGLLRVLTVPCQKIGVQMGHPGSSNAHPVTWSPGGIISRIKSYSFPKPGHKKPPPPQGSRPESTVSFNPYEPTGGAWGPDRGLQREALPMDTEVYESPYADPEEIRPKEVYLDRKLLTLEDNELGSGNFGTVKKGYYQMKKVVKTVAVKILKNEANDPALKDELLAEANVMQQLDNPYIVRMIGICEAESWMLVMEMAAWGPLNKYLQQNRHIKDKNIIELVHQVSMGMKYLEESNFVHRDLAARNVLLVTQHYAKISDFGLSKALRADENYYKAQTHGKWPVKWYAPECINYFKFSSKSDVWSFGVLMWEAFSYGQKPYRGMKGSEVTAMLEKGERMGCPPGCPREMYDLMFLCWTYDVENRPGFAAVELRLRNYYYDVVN

ERK1/2 = assay: MAP kinase activation: ERK1/2 phosphorylation level; type: cell-based; details: high C-13 concentration
Procedure: The association of SLP-76 with Vav and/or Nck plays a role in optimal MAP kinase activation in mast cells^27.
as §1, with “Calbiochem. Sepharose GammaBind G and all the secondary antibodies were supplied by GE Health Amersham Biosciences.” for “Calbiochem.”

COC(=O)c1ccccc1-c1ccc(/C=C2/SC(=S)N(Cc3ccccc3)C2=O)o1 [Molecule C-13, methyl 2-{5-[(3-benzyl-4-oxo-2-thioxo-1,3-thiazolidin-5-ylidene)methyl]-2-furyl}benzoate]
pIC50 (mast cells; read-out: estimated IC50, delayed mast cell response (TNF-α secretion)): ~5.70 | pIC50 (mast cells; read-out: estimated IC50, early mast cell response (β-hexosaminidase release)): ~5.70 | Syk-dependent neutrophil recruitment induced by thioglycollate in the peritoneal cavity (BALB/c mice): did not affect | phosphorylation and FcεRI-induced kinase activity of Syk (Syk): did not affect | phosphorylation level ERK1/2 (ERK1/2): reduces

From patent US9504676B2, “Molecules inhibiting a metabolic pathway involving the Syk protein tyrosine kinase and method for identifying said molecules” (CENTRE NATIONAL DE LA RECHERCHE SCIENTIFIQUE, priority 2008, dated 2016)
